Experiments:
[1] = tested on: cisplatin-induced AKI in mice; test: Cisplatin-induced (nephrotoxic) AKI model: kidney function and histology; format: in vivo, mouse
Protocol: Given the significant protective outcomes in ischemic AKI, we subsequently tested the effect of glutamine blockade on a nephrotoxic AKI model, which is another common etiology of clinical AKI. After pretreatment with JHU083 or vehicle, 25 mg/kg of cisplatin was injected intraperitoneally. T cells were isolated and studied after 72 h after cisplatin treatment (FIG. 16A).
Cisplatin (cis-diammineplatinum II dichloride; Sigma-Aldrich, St. Louis, MO) was freshly dissolved into 0.9% saline (1 mg/mL) on the day of injection. The dissolved solution was incubated in water bath at 40° C. for 10 min to achieve complete dissolution. A single 25 mg/kg dose of cisplatin was injected intraperitoneally.
(§1) Blood samples were obtained at 0, 24, 48, and 72 h after IRI or cisplatin injection through tail vein collection. Plasma creatinine concentration was measured by Cobas Mira Plus automated analyzer system (Roche, Indianapolis, IN) with creatinine reagent (Pointe Scientific Inc, Canton, MI).
(§2) At 24 h after IRI and 72 h after cisplatin injection, mice were anesthetized with ketamine (130 mg/kg; VetOne, Boise, ID) and xylazine (7 mg/kg; Akorn) intraperitoneal injection. After exsanguination, kidneys were collected and fixed with 10% buffered formalin followed by paraffin embedding. Tissue sections were stained with hematoxylin and eosin. A renal pathologist scored necrotic tubules in a blinded fashion.
Glutamine antagonist, JHU083 was synthesized as previously described, Rais et al., 2016, and dissolved in 50 mM […] 4-(2-hydroxyethyl)-1-piperazineethanesulfonic acid (HEPES) buffered 0.9% saline. Aliquot stocks were stored at −80° C. and thawed right before injection. Before the IRI surgery or cisplatin injection, mice were administered 1.83 mg/kg JHU083 (equivalent to 1 mg/kg DON) or vehicle (50 mM HEPES buffered 0.9% saline) every other day via intraperitoneal injection. Following 4 consecutive dosages, mice underwent IRI surgery or cisplatin injection. The last additional dose was given at 24 h after IRI or cisplatin injection. […]

[2] = mouse, in vivo, ip, 1.83 mg/kg
Protocol: (§3) Glutamine antagonist, JHU083 was synthesized as previously described, Rais et al., 2016, and dissolved in 50 mM […] 4-(2-hydroxyethyl)-1-piperazineethanesulfonic acid (HEPES) buffered 0.9% saline. Aliquot stocks were stored at −80° C. and thawed right before injection. Before the IRI surgery or cisplatin injection, mice were administered 1.83 mg/kg JHU083 (equivalent to 1 mg/kg DON) or vehicle (50 mM HEPES buffered 0.9% saline) every other day via intraperitoneal injection. Following 4 consecutive dosages, mice underwent IRI surgery or cisplatin injection. The last additional dose was given at 24 h after IRI or cisplatin injection. This dosage regimen was chosen based on efficiency and toxicity data from a previous study. Hollinger et al., 2020.

[3] = tested on: ischemic AKI in C57BL/6J mice; test: Ischemic AKI model (bilateral IRI 30 min): kidney function and histology; format: in vivo, mouse
Protocol: Mice were treated with 1.83 mg/kg of JHU083 or vehicle every other day via intraperitoneal injection and underwent bilateral IRI surgery on day 7 after the initial injection. […] Hollinger et al., 2020. Mice were followed up until 72 h after IRI, and T cells isolated from post-ischemic kidneys were studied (FIG. 14A).
Mice were anesthetized with an intraperitoneal injection of pentobarbital (75 mg/kg; Akorn, Lake Forest, IL). After shaving of abdominal hair, mice were placed onto a thermostatically controlled heating table. Abdominal midline incision was performed, and both renal pedicles were dissected and clamped for 30 min with a microvascular clamp (Roboz Surgical Instrument, Gaithersburg, MD). After 30 min, microvascular clamps were released from renal pedicles and the kidneys were inspected to confirm reperfusion. During the surgery, mice were kept well hydrated with 1 mL of warm sterile 0.9% saline. After being sutured, mice were allowed to recover with free access to chow and water. Sham surgeries were performed identically without clamping of renal pedicles.
as §1, §2, §3

Compound: CCOC(=O)[C@H](CCC(=O)C=[N+]=[N-])NC(=O)[C@@H](N)CC(C)C [JHU083]
- plasma creatinine at 72 h ([1]; 72 h after cisplatin 25 mg/kg i.p., JHU083 pretreatment, vehicle 2.28±0.34, P=0.016): 1.17 ± 0.24 mg/dL
- medullary necrotic tubules ([1]; 72 h after cisplatin, vehicle 57.1±3.7, P<0.001): 19.9±4.5%
- cortical necrotic tubules ([1]; 72 h after cisplatin, vehicle 58.1±4.9, P=0.243): 20.9±7.0%
- body weight [2]: no significant differences between groups
- plasma creatinine at 24 h ([3]; 24 h after IRI, JHU083 1.83 mg/kg i.p. every other day, mean±SEM, vehicle 1.61±0.18, P=0.026): 1.07 ± 0.14 mg/dL
- cortical necrotic tubules ([3]; 24 h after IRI, vehicle 6.6±0.9, P=0.039): 4.2±0.5%
- medullary necrotic tubules ([3]; 24 h after IRI, vehicle 69.7±3.1, P=0.093): 58.3±5.7%
- renal injury ([3]; Example 1, FIG. 7, treated before inducing AKI): attenuated renal injury at 24 hr

From patent US20240408114A1, “METHODS FOR PREVENTING AND TREATING ACUTE KIDNEY INJURY” (The Johns Hopkins University, priority 2021, published 2024)
